Assay results from patent publication US20060079490A1, “Method of treatment of type I diabetes” (priority 2001, published 2006).
Read-outs that look alike come from different tables or passages of the source.

Experiments:
[1] = tested on: female NOD/LtJ mice; test: Injection vs. Dietary Study: diabetic incidence at day 200; assay type: in vivo, mouse; details: injection of 50 μg/day (so in the source)
[2] = tested on: Non-Obese Diabetic (NOD/LtJ) mice; test: Diabetes incidence (serum glucose >300 mg/dL) in vitamin D-deficient NOD mice given 1,25(OH)2D3 in the diet; assay type: in vivo, mouse; details: for incidence of diabetes: 50 ng/mouse/day in diet from weaning, at termination of experiment
From the text: Non-Obese Diabetic (NOD/LtJ) mice were purchased from The Jackson laboratory (Bar Harbor, Me. 04609). Mice were maintained on highly purified vitamin D-deficient diet containing 0.47% calcium and 0.3% phosphorus supplemented with vitamins A, E, and K. This diet was solidified by the addition of molten agar to a powdered diet. To obtain vitamin D-deficiency in the offspring, pregnant mothers were maintained on the vitamin D-deficient diet. Then, offspring, once weaned, were further maintained on the vitamin D-deficient diet. […] Treatment with 1,25(OH)2D3 was started at weaning. Animals were bled from the extraorbital sinus with a glass pipette after a four hour fast at 2 pm once a week. Serum glucose was determined using the Trinder glucose oxidase enzyme assay kit purchased from Sigma (St. Louis, Mo.). 5 μL of NOD serum was used as an unknown and analyzed spectrophotometrically at 505 nm against a known glucose standard (Sigma, St. Louis, Mo.). An animal was considered diabetic if its serum glucose was greater than 300 mg/dL.

[3] = tested on: NOD/LtJ mice; test: Diabetes incidence by 200 days with 1,25(OH)2D3 diet started at weaning, 8 weeks or 100 days (study C); assay type: in vivo, mouse
Method: Animals: Mice from an in-house breeding colony of NOD/LtJ mice (Jackson Laboratory) were used for this study. Female mice were randomly weaned into each dietary group. 24 mice were used per group.
Diet Preparation: Experimental purified diets were prepared containing 0.47% calcium supplemented with 25 IU vitamin D3 (Diet 11). […] All purified powder diets were solidified by mixing with molten agar to ensure animals consumed the exact dose of 1,25(OH)2D3. Each mouse was administered 3.5 grams of powder diet per day.
Diet Administration: Experimental purified diets were administered beginning at weaning (3 weeks of age) until 200 days of age. 1,25(OH)2D3-containing diet was administered beginning at weaning (group 2), beginning at 8 weeks of age (group 3), or beginning at 100 days of age (group 4).
Serum glucose determination: Serum glucose was measured using an enzymatic colorimetric assay (Glucose liquicolor, Stanbio, Boerne, Tex.).
Disease analysis: Urine samples were obtained twice weekly from animals older than 70 days of age and tested for urinary glucose using Diastix (Bayer, Elkhart, Ind.). Serum glucose was measured from animals with urine glucose readings >250 mg/dL. Animals with multiple serum glucose values >300 mg/dL at least 24 hours apart were considered diabetic and sacrificed via CO2 asphyxiation. All remaining animals were sacrificed at 200 days of age.

[4] = tested on: female NOD/LtJ mice; test: Injection vs. Dietary Study: diabetic incidence at day 200; assay type: in vivo, mouse
Method: NOD/LtJ mice were fed control diets (purified Diet 11 as described in Suda, et al., J. Nutr. 100:1049-1052 1970, 0.47% calcium +vitamins A, D, E and K) or experimental diets (control +10, 25 or 50 ng of 1,25D3/mouse/day).
Control (vehicle) animals were injected with 50 μL sterile peanut oil while the experimental animals were injected with 5 μg/kg 1,25D3/mouse/2 days in sterile peanut oil.
(§1) Mice were weaned at 21 days and placed on the appropriate diets. Injections and experimental diets were administered every 48 hours. Control diets were fed 3 times/week. Every 10 days beginning at day 30 and ending on day 170, mice were weighed and bled for serum calcium determination. Beginning on day 70, mice were tested for glucosuria 3 times/week. If a mouse tested positive, it was fasted for 4 hours and bled to measure serum glucose levels. If the fasting serum glucose level was greater than 300 mg%, the mouse was considered diabetic. All mice remaining at 200 days were sacrificed.

[5] = Serum calcium and hypercalcemia in NOD mice given dietary 1,25(OH)2D3 (study A); assay type: in vivo, mouse; details: for serum calcium: 50 ng each day
From the text: Non-Obese Diabetic (NOD/LtJ) mice were purchased from The Jackson laboratory (Bar Harbor, Me. 04609). Mice were maintained on highly purified vitamin D-deficient diet containing 0.47% calcium and 0.3% phosphorus supplemented with vitamins A, E, and K. This diet was solidified by the addition of molten agar to a powdered diet. To obtain vitamin D-deficiency in the offspring, pregnant mothers were maintained on the vitamin D-deficient diet. Then, offspring, once weaned, were further maintained on the vitamin D-deficient diet. […] Animals were bled from the extraorbital sinus with a glass pipette after a four hour fast at 2 pm once a week.
Blood was immediately centrifuged to obtain serum. Serum was diluted in 0.1% lanthanum chloride, and serum calcium was measured by atomic absorption using a Perkin-Elmer model 3110 atomic absorption spectrometer.

[6] = mouse, in vivo
Method: as §1

[7] = tested on: NOD mice; details: cited from earlier work; for total diabetes incidence at 200 days: control 86%
[8] = administered from 100 to 200 days of age

C=C1/C(=C\C=C2/CCC[C@]3(C)[C@@H]([C@H](C)CCCC(C)(C)O)CC[C@@H]23)C[C@@H](O)C[C@@H]1O [1,25(OH)2D3, 1α,25-dihydroxyvitamin D3]
effect of injection on incidence of diabetes [1]: increased rather than decreased the incidence of diabetes | serum glucose values ([2]; 200 ng group, at any time): ≤ 300 mg/dL | incidence of diabetes ([2]; female NOD mice): 7.69% | incidence of diabetes ([2]; male NOD mice): 7.14% | became diabetic by 200 days of age ([3]; 50 ng in diet after 100 days of age (group 4), 23 animals): 8.7% | animals that became diabetic by 200 days of age ([3]; 50 ng in diet beginning at 8 weeks of age (group 3)): 0 of 24 | became diabetic by 200 days of age ([3]; 50 ng in diet from weaning (group 2), 24 mice): 4.2% | db %= ([4]; 10 ng diet, day 200): 11% | db n= ([4]; 10 ng diet, day 200, n=9): 1 | db %= ([4]; 25 ng diet, day 200): 22% | db n= ([4]; 25 ng diet, day 200, n=9): 2 | db %= ([4]; 50 ng diet, day 200): 25% | db n= ([4]; 50 ng diet, day 200, n=8): 2 | diabetes incidence ([4]; in the diet (oral treatment), day 200): 10-25% | db %= ([4]; injected 5 μg/kg/2 days in peanut oil, day 200): 71% | db n= ([4]; injected 5 μg/kg/2 days in peanut oil, day 200, n=7): 5 | incidence of diabetes ([4]; injected, day 200): over 70% | serum calcium levels (evidence of hypercalcemia) ([5]; 200 ng group): ≥ 12 mg/dL | serum calcium ([5]; females, at 40 days): 10.50 ± 1.53 mg/dL | serum calcium ([5]; females, at 150 days of age): 13.10 ± 1.01 mg/dL | number of NOD females died of hypercalcemia ([5]; females, 50 ng, by 150 days of age): 7 | serum calcium ([5]; males, at 40 days): 9.22 ± 0.93 mg/dL | serum calcium ([5]; males, at 150 days of age): 12.78 ± 1.11 mg/dL | hypercalcemia [6]: clearly caused hypercalcemia | diabetic incidence [7, 8]: same diabetic incidence as the control group | onset of diabetes [7, 8]: appeared to be slightly delayed | incidence of diabetes ([7]; female NOD mice, injection of 5 μg/kg, control 56%): 8% | bone calcium ([7]; mouse, in vivo): reduced | total diabetes incidence at 200 days ([7]; treated only until 100 days of age): about 35% | total diabetes incidence at 200 days ([7]; treated until 200 days of age): 13%
